In patent publication US20090155279A1, “Pseudomonas Aeruginosa Outer Membrane Protein PA5158” (priority 2005, published 2009):
In brackets after ≈: the same amount, converted by molar mass.

Tests used:
[1] = test system: multidrug resistant Pseudomonas aeruginosa MSC06120 strains; test: Minimum inhibitory concentrations for MSC06120 strains; type: cell-based; settings: read-out: Minimum inhibitory concentration
[2] = test system: Pseudomonas aeruginosa PA103 strains (ATCC29260); test: Enhancement of anti-Pseudomonas aeruginosa activity of gentamicin (viable count); type: cell-based; settings: gentamicin 0.125 μg/ml plus PBS (negative control group), 4 hours at 37° C.
Method: Pseudomonas aeruginosa PA103 strains (ATCC29260) were shake cultured overnight at 37° C. in a Mueller-Hinton liquid medium and diluted to 1×10^5 cfu/ml with the same medium. Then, the strains were shake cultured again at 37° C. Two hours later, gentamicin was added at a concentration of 0.125 μg/ml. Likewise, to a negative control group, PBS was added at a concentration of 300 μg/ml. To antibody-added groups, rat anti-PA5158L1 IgG as the monoclonal antibody produced by the hybridoma deposited under the accession No. FERM-BP-10672, rat anti-PA5158L2 IgG as the IgG fraction purified from the KLH-conjugated peptide (SEQ ID No: 6)-immunized rat sera, and rat anti-PA5158 IgG as the IgG fraction purified from the PA5158 recombinant protein-immunized rat sera were added at each concentration of 300 μg/ml. Then, shake culture was carried out at 37° C. for 4 hours, and the number of viable strains in each group was measured.

With `NCC[C@H](O)C(=O)N[C@@H]1C[C@H](N)[C@@H](O[C@H]2O[C@H](CN)[C@@H](O)[C@H](O)[C@H]2O)[C@H](O)[C@H]1O[C@H]1O[C@H](CO)[C@@H](O)[C@H](N)[C@H]1O` [amikacin] the MIC [1] was 64 µg/mL (≈ 109 µM).

`O=C(O)c1cn(C2CC2)c2cc(N3CCNCC3)c(F)cc2c1=O` [ciprofloxacin] showed an MIC [1] of over 256 µg/mL.

In the case of `C[C@@H](O)[C@H]1C(=O)N2C(C(=O)O)=C(SCCN=CN)C[C@H]12` [imipenem], the MIC [1] is reported as 32 µg/mL (≈ 107 µM).

gentamicin was tested, and the “Number of viable strains” value [2] was 5.4×10^6 cfu/ml.
